Here are results for six compounds from patent US11236073B2, “ODM-201 crystalline form, preparation method therefor, and pharmaceutical composition thereof” (Hangzhou SoliPharma Co., Ltd., priority 2017, dated 2022).

In general, Solubility refers to the dissolved amount per volume that the medium holds.

Common to all, as to format: physicochemical
The nature of series [1]: Crystalline form stability experiment (XRD after storage). To be noted: stored 7 days at high temperature 60° C., high moisture content 97% RH, and 40° C.-75% RH. How it is done: X-ray powder diffraction (XRPD): performed on Bruker D8 Advance diffractometer. Samples were tested at room temperature. Testing conditions: scan range 3-40° 2θ, step size 0.02°2θ, and speed 0.2 s/step.
Crystalline form stability experiment: 15 mg of amorphous ODM-201, ODM-201 Form 1, ODM-201 Form 2, ODM-201 Form 4 and ODM-201 Form 5 in the present invention were respectively placed under the following different conditions: high temperature 60° C., high moisture content 97% RH, and 40° C.-75% RH. The samples were stored for 7 days before analyzed by XRD crystalline form measurements.

Series [2] can be described thus: Chemical stability experiment (HPLC purity after storage). The conditions noted are these: for reduction of chemical purity after storage: dry condition (desiccator) at 60° C. for 7 days; for Purity (%): dry condition at 60° C., HPLC. The protocol: HPLC purity data were collected on Ultimate 3000 high performance liquid chromatography under the following conditions: column AY-H (4.6*100 mm, 5 μm) detection wavelength 270 nm, column temperature 40° C., flow rate 0.8 mL/min, injection volume 5 μL. The sample was dissolved in ethanol to make a solution concentration about 1 mg/mL, and a gradient method using HPLC measurements to determine the purity of the sample. […]

The nature of series [3]: Apparent water solubility. To be noted: stirred 1 hour. The protocol:
ODM-201 Form 1, ODM-201 Form 2, ODM-201 Form 3, ODM-201 Form 4 and ODM-201 Form 5 in the present invention were tested for the apparent water solubility, and the specific operations were as follows.
Weighed accurately and placed 15 mg of sample in a 20 mL glass vial containing 5 mL of water, and placed the vials at 25±2° C. and 37±2° C. water bath respectively, stirred in dark (about 200 rpm/min) for 1 hour, filtered with a 0.45 µm filter and took the supernatant, diluted to a certain concentration, analyzed the concentration by HPLC.

A short description of series [4]: Isothermal sorption / dynamic vapor sorption (hygroscopicity). The conditions noted are these: between 0% RH and 80% RH. The protocol: Dynamic vapor sorption data and isothermal sorption data were collected on TA Instruments Q5000 TGA. Method: A sample of 1 to 10 mg was placed in a platinum pan; the weight change of the sample during the change in relative humidity from 0% to 80% to 0% was measured.

Converted amounts (≈) assume the structure as drawn. “Also recorded” adds a separate entry of the source.

On to `CC(O)c1cc(C(=O)N[C@@H](C)Cn2ccc(-c3ccc(C#N)c(Cl)c3)n2)n[nH]1` (stereo partly drawn) [ODM-201 Form 1, N—((S)-1-(3-(3-chloro-4-cyanophenyl)-1H-pyrazol-1-yl)prop-2-yl)-5-(1-hydroxyethyl)-1H-pyrazole-3-carboxamide], for which the “The test results after 7 days (crystalline form by XRD)” value (from here on “The test results after 7 days”) in series [1] is recorded as “keeps its form unchanged; also recorded: kept their original crystalline forms; also recorded: Form 1”. The “reduction of chemical purity after storage” value (“reduction of chemical purity” below) in series [2] is reported as “essentially unchanged; also recorded: still kept their original respective purity level”. Also, the “Purity (%)” value in series [2] (1 day) was 99.7%; in series [2] (7 days) it was 99.6%. For the same compound, the “Solubility” value in series [3] (37 ± 2° C.) is 0.0174 mg/mL (≈ 43.6 µM). Also, the “moisture sorption (weight change)” value in series [4] is listed as “less than 0.3%”.

As for `CC(O)c1cc(C(=O)N[C@@H](C)Cn2ccc(-c3ccc(C#N)c(Cl)c3)n2)n[nH]1` (stereo partly drawn) [ODM-201 Form 5, N—((S)-1-(3-(3-chloro-4-cyanophenyl)-1H-pyrazol-1-yl)prop-2-yl)-5-(1-hydroxyethyl)-1H-pyrazole-3-carboxamide], the “The test results after 7 days” value in series [1] is recorded as “kept their original crystalline forms; also recorded: keeps its form unchanged; also recorded: Form 5”. Further, the “reduction of chemical purity” value in series [2] is “still kept their original respective purity level; also recorded: essentially unchanged”. Further, the “Purity (%)” value amounted to 99.6% in series [2] (1 day) and 99.5% in series [2] (7 days). Also, the “Solubility” value in series [3] (25 ± 2° C.) was 0.0177 mg/mL (≈ 44.4 µM); in series [3] (37 ± 2° C.) it was 0.0295 mg/mL (≈ 74 µM). Also, in series [4], the “moisture sorption (weight change)” value was “less than 0.5%”.

Consider `CC(O)c1cc(C(=O)N[C@@H](C)Cn2ccc(-c3ccc(C#N)c(Cl)c3)n2)n[nH]1` (stereo partly drawn) [ODM-201 Form 2, N—((S)-1-(3-(3-chloro-4-cyanophenyl)-1H-pyrazol-1-yl)prop-2-yl)-5-(1-hydroxyethyl)-1H-pyrazole-3-carboxamide], for which the “The test results after 7 days” value in series [1] is listed as “kept their original crystalline forms; also recorded: keeps its form unchanged; also recorded: Form 2”. For the same compound, the “reduction of chemical purity” value in series [2] is given as “still kept their original respective purity level; also recorded: essentially unchanged”. For the same compound, the “Purity (%)” value in series [2] (1 day) and in series [2] (7 days) was 99.6% throughout. Further, the “Solubility” value is 0.0276 mg/mL (≈ 69.2 µM) in series [3] (25 ± 2° C.) and 0.0548 mg/mL (≈ 137 µM) in series [3] (37 ± 2° C.). The “moisture sorption (weight change)” value in series [4] is reported as 2.5%.

Turning to `CC(O)c1cc(C(=O)N[C@@H](C)Cn2ccc(-c3ccc(C#N)c(Cl)c3)n2)n[nH]1` (stereo partly drawn) [ODM-201 Form 4, N—((S)-1-(3-(3-chloro-4-cyanophenyl)-1H-pyrazol-1-yl)prop-2-yl)-5-(1-hydroxyethyl)-1H-pyrazole-3-carboxamide], in series [1], the “The test results after 7 days” value is “kept their original crystalline forms; also recorded: keeps its form unchanged; also recorded: Form 4”. The “reduction of chemical purity” value in series [2] is reported as “still kept their original respective purity level; also recorded: essentially unchanged”. Moreover, the “Purity (%)” value in series [2] (1 day) is recorded as 99.2%; in series [2] (7 days), 99.1%. For the same compound, the results for the “Solubility” value in series [3] (25 ± 2° C.) and in series [3] (37 ± 2° C.) were 0.0595 mg/mL (≈ 149 µM) and 0.0886 mg/mL (≈ 222 µM), respectively. Moreover, the “moisture sorption (weight change)” value in series [4] is “less than 0.2%”.

In the case of `CC(O)c1cc(C(=O)N[C@@H](C)Cn2ccc(-c3ccc(C#N)c(Cl)c3)n2)n[nH]1` (stereo partly drawn) [amorphous ODM-201, N—((S)-1-(3-(3-chloro-4-cyanophenyl)-1H-pyrazol-1-yl)prop-2-yl)-5-(1-hydroxyethyl)-1H-pyrazole-3-carboxamide, reference compound], the “The test results after 7 days” value is “begins to show a weak crystalline state; also recorded: Amorphous with weak crystalline peaks” in series [1] and “began to show a weak crystalline state” in series [1] (listed as ODM-201 amorphous form). Moreover, the “reduction of chemical purity” value in series [2] was “more than 1%”. Moreover, the “Purity (%)” value is reported as 99.7% in series [2] (1 day) and 98.2% in series [2] (7 days). Moreover, the “moisture sorption (weight change)” value in series [4] was 6.4%.

With `CC(O)c1cc(C(=O)N[C@@H](C)Cn2ccc(-c3ccc(C#N)c(Cl)c3)n2)[nH]n1` (stereo partly drawn) [ODM-201 Form 3, N—((S)-1-(3-(3-chloro-4-cyanophenyl)-1H-pyrazol-1-yl)prop-2-yl)-5-(1-hydroxyethyl)-1H-pyrazole-3-carboxamide], the “Solubility” value in series [3] (25 ± 2° C.) stood at 0.0125 mg/mL (≈ 31.3 µM); in series [3] (37 ± 2° C.) it was 0.0243 mg/mL (≈ 60.9 µM).
